US10677783B2, “Method for evaluating effect of cytokine on metabolic activity of cytochrome P450, and drug screening method” (Corning Incorporated, priority 2012, dated 2020)

Test system: CYP3A4
Assay: CYP3A4 mRNA expression by RT-qPCR in spheroid-shaped FLC-4 cells (example, MICRO-SPACE)
Format: cell-based, human
Source text: A plurality of culture chambers 10a are formed on the bottom culture surface of each well 21a. Each culture chamber 10a includes culture rooms 11a each having the equivalent diameter D of 200 μm and the height H of 100 μm. The width W of each wall 12a is 10 μm.
As cells to be cultured, FLC-4 cells which are established hepatocyte cell lines […] were used.
As a culture medium, a DMEM/F 12 culture medium containing 10% fetal bovine serum (FBS) was used. A cell suspension was adjusted at a cell seeding density of 16×10^5 cells/mL.
The cells were cultured in a CO2 incubator for 10 to 11 days. The culture medium was replaced once every three days.
The total amount of old culture medium was removed from each well by using a pipette (culture medium removing process).
A test solution or a control solution was added to each well (test solution addition process).
The cells were incubated in a CO2 incubator for eight hours, 24 hours, or 48 hours at 37° C. (contact process).
The test solution was obtained in such a manner that the cytokine was dissolved at each concentration shown in Table 1 in a DMEM/F12 solution (DMEM/E12 FBS(−)) containing no serum.
In an RNA extraction, one sample corresponding to two wells 21a of the culture plate 1a was extracted according to the protocol of NucleoSpin® RNAII (Macherey-Nagel). Only the portion to be subjected to Dnase treatment was modified, and DNaseI recombinant, RNase-free (Roche, Branchburg, N.J., USA) was used. The total RNA underwent reverse transcription reaction using High-Capacity cDNA Reverse Transcription Kits (Applied. Biosystems, Foster City, Calif., USA) and an attached random hexamer primer, and the first strand cDNA was synthesized.
The analysis was made using a total amount of 20 μL of reaction liquid containing 9.6 μL of EagleTaq Master Mix with ROX (Roche, Branchburg, N.J., USA), 0.96 μL of 20× Assays-on-Demand™ Gene Expression Assay Mix (Applied Biosystems), 7.1 μL of sterilized MiliQ water, and 1.8 μL of cDNA diluted by a factor of 5, and the reaction liquid was measured by Real-time PCR.

Row | Molecule | value of the metabolic function of CYP3A4 (mRNA expression level), third test solution versus second test solution (10 ng/mL EGF + 5 μM Gefitinib vs 10 ng/mL EGF alone, FIG. 20) | determination of the drug's effect on the drug-metabolizing function of the cytochrome P450 (10 ng/mL EGF + 5 μM Gefitinib, first to third test solutions compared) | gene expression level of CYP3A4 versus contact time (spheroid-shaped established hepatocyte cell line, contact for 0, four and eight hours, FIG. 9)
1 | COc1cc2ncnc(Nc3ccc(F)c(Cl)c3)c2cc1OCCCN1CCOCC1 [Gefitinib, reference compound] | three times higher | restores the drug-metabolizing function of the cytochrome P450 | –
2 | interleukin-1β | – | – | decreases over time
